Source: US20230382894A1, “CCR4 ANTAGONISTS” (CHEMOCENTRYX, INC., priority 2022, published 2023)

Molecular target: T1, CCR4 (Homo sapiens, UniProt P51679)
T1 construct: CEM Cells Endogenous Express CCR4; endogenous in cells; host or cells: CEM cells
T1 sequence (P51679 1-360): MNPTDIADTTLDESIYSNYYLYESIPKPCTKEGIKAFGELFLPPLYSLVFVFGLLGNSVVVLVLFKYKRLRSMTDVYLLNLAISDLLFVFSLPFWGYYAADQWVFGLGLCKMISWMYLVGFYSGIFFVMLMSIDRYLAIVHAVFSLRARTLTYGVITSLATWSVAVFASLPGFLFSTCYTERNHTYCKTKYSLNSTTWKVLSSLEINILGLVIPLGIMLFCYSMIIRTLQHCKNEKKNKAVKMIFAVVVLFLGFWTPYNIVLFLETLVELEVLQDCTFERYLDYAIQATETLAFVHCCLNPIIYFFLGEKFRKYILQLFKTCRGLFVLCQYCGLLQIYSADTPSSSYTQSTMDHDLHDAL
Assay: CEM cell chemotaxis (migration) assay to CCL22 (MDC) in 100% Fetal Bovine Serum (FBS)
Assay type: cell-based
Conditions: CEM cells in 100% FBS with 1% HEPEs; recombinant human CCL22 0.1 nM; 37° C. 60 minutes
Description: CEM Cells Endogenous Express CCR4
A chemotaxis assay can be used to determine the efficacy of potential receptor antagonists at blocking the migration mediated through chemokine receptors, such as CCR4. This assay is routinely performed using the ChemoTX® microchamber system with a 5 μm pore-sized polycarbonate membrane.
FBS: CEM Cells are collected by centrifugation at 400×g at room temperature, then suspended at 5 million/ml in 100% Fetal Bovine Serum (FBS) with 1% HEPEs. The compound being tested is serially diluted from a maximum final concentration of 10 μM (or an equivalent volume of its solvent (DMSO)) and is then added to the cell/buffer mixture. Separately, recombinant human CCL22 (MDC) at its EC50 concentration (0.1 nM) is placed in the lower wells of the ChemoTX® plate. The 5-μm (pore size) polycarbonate membrane was placed onto the plate, and 20 μL of the cell/compound mixture is transferred onto each well of the membrane. The plates are incubated at 37° C. for 60 minutes, after which the polycarbonate membranes are removed and 5 μl of the DNA-intercalating dye CyQUANT (Invitrogen, Carlsbad, CA) is added to the lower wells. The amount of fluorescence, corresponding to the number of migrated cells, is measured using a Spectrafluor Plus plate reader (TECAN, San Jose, CA).

| Structure (SMILES) | IC50 [µM] | Serum IC50 (FBS) |
| --- | --- | --- |
| C[C@@H](Nc1nc(N2CCC(N(CCC(=O)O)C(=O)[C@H]3CCCN3)CC2)ncc1Cl)c1ccc(Cl)cc1Cl [Example 1.141] | > 1 |  |
| C[C@@H](Nc1nc(N2CCN(C(=O)[C@H]3CCN(C)C3)CC2)ncc1Cl)c1ccc(Cl)cc1Cl [Example 1.143] | < 0.1 |  |
| C[C@@H](Nc1nc(N2CCN(C(=O)[C@@H]3CCC(=O)N3)CC2)ncc1Cl)c1ccc(Cl)cc1Cl [Example 1.144] | 0.1 to 1 |  |
| C[C@@H](Nc1nc(N2CCN(C(=O)[C@@H]3CNCCO3)CC2)ncc1Cl)c1ccc(Cl)cc1Cl [Example 1.145] | < 0.1 |  |
| C[C@@H](Nc1nc(N2CCN(C(=O)[C@H]3CC(F)(F)CN3)CC2)ncc1Cl)c1ccc(Cl)cc1Cl [Example 1.146] | 0.1 to 1 |  |
| C[C@@H](Nc1nc(N2CCN(C(=O)[C@H]3CCN(C)C3)CC2)ncc1C(C)(C)O)c1ccc(Cl)cc1Cl [Example 1.154] | 0.1 to 1 |  |
| COc1cnc(N2CCN(C(=O)[C@H]3CCCN3C)CC2)nc1N[C@H](C)c1ccc(Cl)cc1Cl [Example 1.156] | < 0.1 |  |
| C[C@@H](Nc1nc(N2CCN(C(=O)[C@H]3CCCN3)CC2)ncc1F)c1ccc(Cl)cc1Cl [Example 1.157] | < 0.1 |  |
| C[C@@H](Nc1nc(C2CCN(C(=O)[C@H]3CCCN3)CC2)ncc1Cl)c1ccc(Cl)cc1Cl [Example 1.159] | < 0.1 |  |
| C[C@@H](Nc1nc(C2=CCN(C(=O)[C@H]3CCC(=O)N3)CC2)ncc1Cl)c1ccc(Cl)cc1Cl [Example 1.162] | < 0.1 |  |
| COc1cnc(N2CCN(C(=O)[C@H]3CCNC3)CC2)nc1N[C@H](C)c1ccc(Cl)cc1Cl [Example 1.163] |  | + ++ |
| COc1cnc(N2CCN(C(=O)C[C@H]3CCCN3)CC2)nc1N[C@H](C)c1ccc(Cl)cc1Cl [Example 1.164] | < 0.1 |  |
| COc1cnc(N2CCN(C(=O)C3CCN(C)CC3)CC2)nc1N[C@H](C)c1ccc(Cl)cc1Cl [Example 1.165] | < 0.1 |  |
| C[C@@H](Nc1nc(N2CCN(C(=O)C[C@H]3CCCN3)CC2)ncc1OC(F)F)c1ccc(Cl)cc1Cl [Example 1.166] | < 0.1 |  |
| COc1cnc(N2CCN(C(=O)C[C@@H]3CCCN3C)CC2)nc1N[C@H](C)c1ccc(Cl)cc1Cl [Example 1.168] | < 0.1 |  |
| COc1cnc(N2CCC(N(C)C(=O)[C@H]3CCCN3)CC2)nc1N[C@H](C)c1ccc(Cl)cc1Cl [Example 1.170] | < 0.1 |  |

| Structure (SMILES) | IC50 [µM] | Serum IC50 (FBS) |
| --- | --- | --- |
| C[C@@H](Nc1nc(N2CCN(C(=O)[C@H]3CCC(=O)N3)CC2)ncc1OC(F)F)c1ccc(Cl)cc1Cl [Example 1.171] | < 0.1 |  |
| CC(C)Oc1cnc(N2CCN(C(=O)[C@H]3CCCN3)CC2)nc1N[C@H](C)c1ccc(Cl)cc1Cl [Example 1.174] | < 0.1 |  |
| COc1nc(N2CCN(C(=O)[C@H]3CCCN3)CC2)nc(N[C@H](C)c2ccc(Cl)cc2Cl)c1Cl [Example 1.175] | < 0.1 |  |
| COc1cnc(N2CCC(NC(=O)[C@H]3CCCN3)CC2)nc1N[C@H](C)c1ccc(Cl)cc1Cl [Example 1.176] | < 0.1 |  |
| C[C@@H](Nc1nc(N2CCN(C(=O)C[C@@H]3CCCN3)CC2)ncc1Cl)c1ccc(Cl)cc1Cl [Example 1.180] | < 0.1 |  |
| CCOc1cnc(N2CCN(C(=O)[C@H]3CCCN3)CC2)nc1N[C@H](C)c1ccc(Cl)cc1Cl [Example 1.181] | < 0.1 |  |
| CCOc1cnc(N2CCN(C(=O)[C@H]3CCN(C)C3)CC2)nc1N[C@H](C)c1ccc(Cl)cc1Cl [Example 1.184] | < 0.1 |  |
| C[C@@H](Nc1nc(N2CCN(C(=O)CCN3CCCC3)CC2)ncc1Cl)c1ccc(Cl)cc1Cl [Example 1.185] | < 0.1 |  |
| C[C@@H](Nc1nc(N2CCC(O[C@@H]3CNC[C@H]3F)CC2)ncc1Cl)c1ccc(Cl)cc1Cl [Example 1.186] | < 0.1 |  |
| COc1cnc(N2CCN(C(=O)CCN(C)C)CC2)nc1N[C@H](C)c1ccc(Cl)cc1Cl [Example 1.187] | < 0.1 |  |
| COc1cnc(N2CCN(C(=O)[C@H]3CCN(C)C3)CC2)nc1N[C@H](C)c1ccc(Cl)cc1Cl [Example 1.189] | < 0.1 |  |
| C[C@@H](Nc1nc(N2CCN(C(=O)CCN3CCCC3=O)CC2)ncc1Cl)c1ccc(Cl)cc1Cl [Example 1.191] | 0.1 to 1 |  |
| C[C@@H](Nc1nc(N2CCN(C(=O)CN3CCCC3)CC2)ncc1Cl)c1ccc(Cl)cc1Cl [Example 1.192] | < 0.1 |  |
| C[C@@H](Nc1nc(N2CC[C@H](N(C)C(=O)[C@H]3CCCN3)[C@@H](O)C2)ncc1Cl)c1ccc(Cl)cc1Cl [Example 1.194] | 0.1 to 1 |  |
| C[C@@H](Nc1nc(N2CCN(C(=O)[C@H]3CC4(CC4)C(=O)N3)CC2)ncc1Cl)c1ccc(Cl)cc1Cl [Example 1.195] | 0.1 to 1 |  |
| C[C@@H](Nc1nc(N2CCN(C(=O)CCN3CCOCC3)CC2)ncc1Cl)c1ccc(Cl)cc1Cl [Example 1.196] | 0.1 to 1 |  |

Other lines, results leading:

| IC50 [µM] | Serum IC50 (FBS) | Structure (SMILES) |
| --- | --- | --- |
| < 0.1 |  | C[C@@H](Nc1nc(N2CCN(C(=O)[C@H]3C[C@H](F)CN3)CC2)ncc1Cl)c1ccc(Cl)cc1Cl [Example 1.142] |
| < 0.1 |  | C[C@@H](Nc1nc(N2CCN(C(=O)C3CNC(=O)C3)CC2)ncc1Cl)c1ccc(Cl)cc1Cl (some centres unmarked) [Example 1.147] |
| < 0.1 |  | C[C@@H](Nc1nc(N2CC[C@H](NC(=O)[C@H]3CCCN3)[C@@H](O)C2)ncc1OC(F)F)c1ccc(Cl)cc1Cl [Example 1.155] |
| < 0.1 |  | COc1cnc(N2CCC(C3CCCN(CCO)C3)CC2)nc1N[C@H](C)c1ccc(Cl)cc1Cl (some centres unmarked) [Example 1.158] |
| > 1 |  | C[C@@H](Nc1nc(C2CCN(C(=O)[C@H]3CCC(=O)N3)CC2)ncc1Cl)c1ccc(Cl)cc1Cl [Example 1.160] |
| < 0.1 |  | CC(C)Oc1cnc(N2CCN(C(=O)C[C@@H]3CCCN3)CC2)nc1N[C@H](C)c1ccc(Cl)cc1Cl [Example 1.161] |
| < 0.1 |  | C[C@@H](Nc1nc(N2CCN(C(=O)[C@H]3CCCN3)CC2)ncc1O)c1ccc(Cl)cc1Cl [Example 1.167] |
| < 0.1 |  | C[C@@H](Nc1nc(N2CCN(C(=O)C[C@@H]3CCCN3C)CC2)ncc1Cl)c1ccc(Cl)cc1Cl [Example 1.169] |
| < 0.1 |  | C[C@@H](Nc1nc(N2CCN(C(=O)[C@H]3CCCN3)CC2)ncc1OC(F)F)c1ccc(Cl)cc1Cl [Example 1.172] |
| < 0.1 |  | COc1cnc(N2CCN(C(=O)[C@H]3CC[C@@H](C)N3)CC2)nc1N[C@H](C)c1ccc(Cl)cc1Cl [Example 1.173] |
| < 0.1 |  | COc1cnc(N2CCN(C(=O)C[C@@H]3CCCN3)CC2)nc1N[C@H](C)c1ccc(Cl)cc1Cl [Example 1.177] |
| < 0.1 |  | C[C@@H](Nc1nc(N2CCC(O[C@H]3CCN(C)C3)CC2)ncc1Cl)c1ccc(Cl)cc1Cl [Example 1.178] |
| < 0.1 |  | COc1cnc(N2CC[C@H](NC(=O)[C@H]3CCCN3)[C@@H](O)C2)nc1N[C@H](C)c1ccc(Cl)cc1Cl [Example 1.179] |
| < 0.1 |  | CCOc1cnc(N2CCN(C(=O)[C@H]3CCC(=O)N3)CC2)nc1N[C@H](C)c1ccc(Cl)cc1Cl [Example 1.182] |
| < 0.1 |  | CCOc1cnc(N2CCN(C(=O)CCN(C)C)CC2)nc1N[C@H](C)c1ccc(Cl)cc1Cl [Example 1.183] |
| < 0.1 |  | COc1cnc(N2CCN(C(=O)[C@H]3CCC(=O)N3)CC2)nc1N[C@H](C)c1ccc(Cl)cc1Cl [Example 1.188] |
| < 0.1 |  | C[C@@H](Nc1nc(N2CCC(O[C@@H]3CNC[C@@H]3F)CC2)ncc1Cl)c1ccc(Cl)cc1Cl [Example 1.190] |
| < 0.1 |  | C[C@@H](Nc1nc(N2CCC(O[C@H]3CCN(CCO)C3)CC2)ncc1Cl)c1ccc(Cl)cc1Cl [Example 1.193] |
